Measured values taken from ChEMBL document CHEMBL1201862, “PubChem BioAssay data set” (2004).
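Each compound was tested at five concentrations against cells in 96-well plates for 48 hours. GI50 marks 50% less growth.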 Activity calls are given as the source filed them. Rule as the data show it: active = GI50 up to about 1.1 µM and inactive = higher. Where a SMILES comes first, the peptide text is derived from it. The star is where a group is joined. Boc = CC(C)(C)OC(=O)*; Bn = c1ccc(C*)cc1

Columns and labels:
Test in all cases: DTP human tumour cell line panel, 48 h
HOP-18 = tested on: HOP-18
XF498 = tested on: XF498
SNB-78 = tested on: SNB-78
DLD-1 = tested on: DLD-1
DMS-273 = tested on: DMS-273
DU-145 = tested on: DU-145
T47D = tested on: T47D
LXFL 529 = tested on: LXFL 529

Measured: GI50

C=CC[C@H](C[C@H](C[C@H](C[C@H](C[C@H](C[C@H](C[C@H](C[C@H](C[C@H](C[C@H](CCCCC)OC)OC)OC)OC)OC)OC)OC)OC)OC)OC
inactive: HOP-18 > 100 µM | XF498 41.6 µM | SNB-78 > 100 µM | DLD-1 > 100 µM | DMS-273 > 100 µM

CC1(C)OCC(C2OC(C)(C)OC2[C@H]2O[C@@]3(O)[C@H]4[C@H](C=CC[C@@H]42)[C@@H](OCc2ccccc2)[C@H](OCc2ccccc2)[C@H]3OCc2ccccc2)O1 (stereo partly specified)
inactive: DU-145 61 µM | T47D 34.2 µM

C[N+](C)([O-])CCCNc1ccnc2cccc([N+](=O)[O-])c12
inactive: DU-145 20.9 µM | T47D 40 µM

O=C1OC(=O)C2C1C1(c3ccccc3)OC2(c2ccccc2)c2c(Br)c(Br)c(Br)c(Br)c21 (stereo unspecified)
inactive: HOP-18 > 100 µM | XF498 > 100 µM | SNB-78 83.8 µM | DLD-1 > 100 µM | DMS-273 > 100 µM | LXFL 529 > 100 µM

CSC1(C(=O)O)C2CCC3C2CCC31 (stereo unspecified)
inactive: DU-145 > 100 µM | T47D > 100 µM

COc1c(C)c(C/C=C(\C)CC/C=C(\C)CC/C=C(\C)CCC=C(C)C)c(OC)c2ccccc12
inactive: DU-145 > 100 µM

C=CCOC(C)(C)C1=CCC(C)CC1 (stereo unspecified)
inactive: DU-145 > 100 µM

O=C(O)CN1CCN(CC(=O)O)CCN(CC(=O)O)CCN(CC(=O)O)CC1 [TETRAXETAN]
inactive: DU-145 > 100 µM | T47D > 100 µM

CCOCc1cc(=O)c2c(OC)cc3c(c2o1)CCC(C)(C)O3
inactive: HOP-18 > 100 µM | XF498 > 100 µM | SNB-78 > 100 µM | DLD-1 > 100 µM | LXFL 529 > 100 µM

Nc1cc(=O)n(-c2ccccc2)c(=S)n1-c1ccccc1
inactive: XF498 > 100 µM | SNB-78 > 100 µM | DLD-1 > 100 µM | DMS-273 > 100 µM | LXFL 529 > 100 µM

Cc1ccc(-c2c(C#N)c(S)n(NS(=O)(=O)c3ccccc3)c(=O)c2C#N)cc1
inactive: DU-145 53.3 µM

Cc1cccc(C)c1NC(=O)C(=O)C(C#N)c1ccccc1Cl (stereo unspecified)
inactive: HOP-18 91.4 µM | XF498 > 100 µM | SNB-78 > 100 µM | DLD-1 > 100 µM | DMS-273 > 100 µM | LXFL 529 > 100 µM

CC1=CC(=O)CC(C)(C)C1/C=C/C(C)=C/C=C/C(C)=C/C=C/C=C(C)/C=C/C=C(C)/C=C/C1=C(C)CC(O)CC1(C)C (stereo unspecified)
inactive: DU-145 24.4 µM | T47D 30.9 µM

COc1ccc2nccc(C3=CCC4CCN(C(=O)c5ccccc5)C3C4)c2c1 (stereo unspecified)
inactive: XF498 92 µM | SNB-78 > 100 µM | DLD-1 > 100 µM | DMS-273 > 100 µM | LXFL 529 > 100 µM

COC(=O)C(CC(C)C)NC(=O)CNC(=O)C(Cc1ccc(OCc2ccccc2)cc1)NC(=O)C(COCc1ccccc1)NC(=O)OC(C)(C)C (stereo unspecified) (Boc-S(Bn)Y(Bn)GL-OMe; configuration not given here)
inactive: DU-145 > 100 µM | T47D > 100 µM

CCCN1C(=O)CN(S(=O)(=O)c2ccc(Cl)cc2)C1=O
inactive: DU-145 > 100 µM | T47D > 100 µM

[N-]=[N+]=Nc1c([N+](=O)[O-])c(=O)n2c3c(cccc13)CCC2
inactive: DU-145 16.9 µM | T47D 5.42 µM

COC(=O)C(=O)C(C(=O)C(=O)Nc1nnc(S)[nH]1)c1nc2ccc([N+](=O)[O-])cc2nc1O (stereo unspecified)
inactive: T47D > 100 µM

C1OC1C1CO1 (stereo unspecified)
inactive: HOP-18 > 100 µM | XF498 > 100 µM | SNB-78 87.3 µM | DLD-1 > 100 µM | DMS-273 10.4 µM

Cc1cc2c3ccccc3n3c2c2c1OC1(C)CCC(C2C1)C3(C)C (stereo unspecified)
inactive: XF498 > 25 µM | SNB-78 > 25 µM | DLD-1 > 25 µM | DMS-273 > 25 µM | LXFL 529 > 25 µM

CC(C)(Cl)C(Br)CCC(Br)(CCl)C(Cl)CBr (stereo unspecified)
inactive: DU-145 > 10 µM | T47D > 10 µM

CC#CC#C/C=C1\C=CC2(OC=CC2O)O1 (stereo unspecified)
inactive: HOP-18 4.79 µM | XF498 9.4 µM | SNB-78 4.93 µM | DLD-1 8.93 µM | DMS-273 > 23.3 µM | LXFL 529 6.24 µM

O=C1CCSCCC(=O)Nc2ccccc2N1
inactive: DU-145 > 100 µM | T47D > 100 µM

CNNC1=NS(=O)(=O)c2cc(C#N)c(Cl)cc2S1
inactive: DU-145 > 10 µM | T47D > 10 µM

Cc1ccc(-n2c3nc(=O)n(C)c(=O)c-3nc3ccccc32)cc1
inactive: HOP-18 14.7 µM | XF498 25.4 µM | SNB-78 30.5 µM | DLD-1 27.6 µM | DMS-273 4.3 µM | LXFL 529 36 µM

O=c1c2cc(I)ccc2nc(SCc2n[nH]c(=S)o2)n1Cc1ccccc1
inactive: DU-145 16.3 µM | T47D 14.8 µM

Cc1c2oc(=O)c(C#N)cc2c2ccccn12
inactive: DU-145 > 100 µM | T47D > 100 µM

O=S1(=O)CCN(Cc2ccccc2)/C1=N\S(=O)(=O)c1ccc(Cl)cc1
inactive: DU-145 20.5 µM | T47D 22.2 µM
